assay: Inhibition of 1-monooleoyl glycerol (MOG) induced beta-hematin formation

| Structure (SMILES) | IC50 |
| --- | --- |
| CC(C)CN(CCCN1CCN(CCCNc2ccnc3cc(Cl)ccc23)CC1)CC(C)C [7-chloro-N-(3-(4-(3-(diisobutylamino)propyl)piperazin-1-yl)propyl)quinolin-4-amine] | 43.4 µM |
| CC(C)CN(CCCN1CCN(CCCNc2nc3ccccc3[nH]2)CC1)CC(C)C [(1H-Benzoimidazol-2-yl)-{3-[4-(3-diisobutylamino-propyl)-piperazin-1-yl]-propyl}-amine] | 63.6 µM |
| CC(C)CN(CCCN1CCN(CCCNCc2ccncc2)CC1)CC(C)C [Diisobutyl-[3-(4-{3-[(pyridin-4-ylmethyl)-amino]-propyl}-piperazin-1-yl)-propyl]-amine] | > 200 µM |
| CC(C)CN(CCCN1CCN(CCCNc2nc3ccccc3o2)CC1)CC(C)C [Benzooxazol-2-yl-{3-[4-(3-diisobutylamino-propyl)-piperazin-1-yl]-propyl}-amine] | > 200 µM |

Next, values leading:

| IC50 | Structure (SMILES) |
| --- | --- |
| 62.3 µM | CC(C)CN(CCCN1CCN(CCCNc2ccnc3ccccc23)CC1)CC(C)C [{3-[4-(3-Diisobutylamino-propyl)-piperazin-1-yl]-propyl}-quinolin-4-yl-amine] |
| > 200 µM | CC(C)CN(CCCN1CCN(CCCNc2cnccn2)CC1)CC(C)C [{3-[4-(3-Diisobutylamino-propyl)-piperazin-1-yl]-propyl}-pyrazin-2-yl-amine] |
